Molecular target: T1, hNav1.8 (Homo sapiens, UniProt Q9Y5Y9)
T1 construct: host or cells: HEK cells, stably transfected
Assay: hNav1.8 whole-cell patch-clamp electrophysiology (conventional or PatchXpress 7000) in stably transfected HEK cells
Assay type: cell-based
Conditions: estimated IC50 calculated from single point % inhibition; HEK cells expressing hNav1.8; 8 sec prepulse to V1/2, 20 msec step to 0 mV; average of replicates; read-out: Nav1.8 EIC50
Description: The ability of the benzimidazole derivatives of the formula (I) to inhibit the Nav1.8 channel may be measured using the assay described below.
HEK cells stably transfected with hNav1.8, purchased from Millipore (Millipore Corp., Billerica, Mass. 01821), were maintained according to manufacturer's instructions. For electrophysiological studies, cells were removed from the culture flask by brief trypsinization and re-plated at low density onto glass cover slips. Cells were typically used for electrophysiological experiments within 24 to 72 h after plating.
Cover slips containing HEK cells expressing hNav1.8 were placed in a bath on the stage of an inverted microscope and perfused (approximately 1 ml/min) with extracellular solution of the following composition: 138 mM NaCl, 2 mM CaCl2, 5.4 mM KCl, 1 mM MgCl2, 10 mM glucose, and 10 mM HEPES, pH 7.4, with NaOH. […] The osmolarity of the extracellular and intracellular solutions was 300 mOsm/kg and 295 mOsm/kg, respectively. All recordings were made at room temperature (22-24° C.) using AXOPATCH 200B amplifiers and PCLAMP software (Axon Instruments, Burlingame, Calif.).
hNav1.8 currents in HEK cells were measured using the whole-cell configuration of the patch-clamp technique (Hamill et al., 1981). Uncompensated series resistance was typically 2 to 5 mega ohms and >85% series resistance compensation was routinely achieved. As a result, voltage errors were negligible and no correction was applied. Current records were acquired at 20 to 50 KHz and filtered at 5 to 10 KHz.
HEK cells stably transfected with hNav1.8 were viewed under Hoffman contrast optics and placed in front of an array of flow pipes emitting either control or compound-containing extracellular solutions. All compounds were dissolved in dimethyl sulfoxide to make 10 mM stock solutions, which were then diluted into extracellular solution to attain the final concentrations desired.
The voltage-dependence of inactivation was determined by applying a series of depolarizing prepulses (8 sec long in 10 mV increments) from a negative holding potential. The voltage was then immediately stepped to 0 mV to assess the magnitude of the sodium current. Currents elicited at 0 mV were plotted as a function of prepulse potential to allow estimation of the voltage at which 50% of the channels were inactivated (midpoint of inactivation or V1/2). Compounds were tested for their ability to inhibit hNav1.8 sodium channels by activating the channel with a 20 msec voltage step to 0 mV following an 8 second conditioning prepulse to the empirically determined V1/2. Compound effect (% inhibition) was determined by difference in current amplitude before and after application of test compounds. For ease of comparison, “estimated IC50” values were calculated from single point electrophysiology data by the following equation, (tested concentration, uM)×(100-% inhibition/% inhibition). Inhibition values<20% and >80% were excluded from the calculation.
In some cases electrophysiological assays were conducted with PatchXpress 7000 hardware and associated software (Molecular Devices Corp). All assay buffers and solutions were identical to those used in conventional whole-cell voltage clamp experiments described above. hNav1.8 cells were grown as above to 50%-80% confluency and harvested by trypsinization. Trypsinized cells were washed and resuspended in extracellular buffer at a concentration of 1×10^6 cells/ml. The onboard liquid handling facility of the PatchXpress was used for dispensing cells and application of test compounds. Determination of the voltage midpoint of inactivation was as described for conventional whole-cell recordings. Cells were then voltage-clamped to the empirically determined V1/2 and current was activated by a 20 msec voltage step to 0 mV.
Estimated IC50 values for the compounds of formula (I) exemplified above are as follows. […]

T1 sequence (Q9Y5Y9 whole entry): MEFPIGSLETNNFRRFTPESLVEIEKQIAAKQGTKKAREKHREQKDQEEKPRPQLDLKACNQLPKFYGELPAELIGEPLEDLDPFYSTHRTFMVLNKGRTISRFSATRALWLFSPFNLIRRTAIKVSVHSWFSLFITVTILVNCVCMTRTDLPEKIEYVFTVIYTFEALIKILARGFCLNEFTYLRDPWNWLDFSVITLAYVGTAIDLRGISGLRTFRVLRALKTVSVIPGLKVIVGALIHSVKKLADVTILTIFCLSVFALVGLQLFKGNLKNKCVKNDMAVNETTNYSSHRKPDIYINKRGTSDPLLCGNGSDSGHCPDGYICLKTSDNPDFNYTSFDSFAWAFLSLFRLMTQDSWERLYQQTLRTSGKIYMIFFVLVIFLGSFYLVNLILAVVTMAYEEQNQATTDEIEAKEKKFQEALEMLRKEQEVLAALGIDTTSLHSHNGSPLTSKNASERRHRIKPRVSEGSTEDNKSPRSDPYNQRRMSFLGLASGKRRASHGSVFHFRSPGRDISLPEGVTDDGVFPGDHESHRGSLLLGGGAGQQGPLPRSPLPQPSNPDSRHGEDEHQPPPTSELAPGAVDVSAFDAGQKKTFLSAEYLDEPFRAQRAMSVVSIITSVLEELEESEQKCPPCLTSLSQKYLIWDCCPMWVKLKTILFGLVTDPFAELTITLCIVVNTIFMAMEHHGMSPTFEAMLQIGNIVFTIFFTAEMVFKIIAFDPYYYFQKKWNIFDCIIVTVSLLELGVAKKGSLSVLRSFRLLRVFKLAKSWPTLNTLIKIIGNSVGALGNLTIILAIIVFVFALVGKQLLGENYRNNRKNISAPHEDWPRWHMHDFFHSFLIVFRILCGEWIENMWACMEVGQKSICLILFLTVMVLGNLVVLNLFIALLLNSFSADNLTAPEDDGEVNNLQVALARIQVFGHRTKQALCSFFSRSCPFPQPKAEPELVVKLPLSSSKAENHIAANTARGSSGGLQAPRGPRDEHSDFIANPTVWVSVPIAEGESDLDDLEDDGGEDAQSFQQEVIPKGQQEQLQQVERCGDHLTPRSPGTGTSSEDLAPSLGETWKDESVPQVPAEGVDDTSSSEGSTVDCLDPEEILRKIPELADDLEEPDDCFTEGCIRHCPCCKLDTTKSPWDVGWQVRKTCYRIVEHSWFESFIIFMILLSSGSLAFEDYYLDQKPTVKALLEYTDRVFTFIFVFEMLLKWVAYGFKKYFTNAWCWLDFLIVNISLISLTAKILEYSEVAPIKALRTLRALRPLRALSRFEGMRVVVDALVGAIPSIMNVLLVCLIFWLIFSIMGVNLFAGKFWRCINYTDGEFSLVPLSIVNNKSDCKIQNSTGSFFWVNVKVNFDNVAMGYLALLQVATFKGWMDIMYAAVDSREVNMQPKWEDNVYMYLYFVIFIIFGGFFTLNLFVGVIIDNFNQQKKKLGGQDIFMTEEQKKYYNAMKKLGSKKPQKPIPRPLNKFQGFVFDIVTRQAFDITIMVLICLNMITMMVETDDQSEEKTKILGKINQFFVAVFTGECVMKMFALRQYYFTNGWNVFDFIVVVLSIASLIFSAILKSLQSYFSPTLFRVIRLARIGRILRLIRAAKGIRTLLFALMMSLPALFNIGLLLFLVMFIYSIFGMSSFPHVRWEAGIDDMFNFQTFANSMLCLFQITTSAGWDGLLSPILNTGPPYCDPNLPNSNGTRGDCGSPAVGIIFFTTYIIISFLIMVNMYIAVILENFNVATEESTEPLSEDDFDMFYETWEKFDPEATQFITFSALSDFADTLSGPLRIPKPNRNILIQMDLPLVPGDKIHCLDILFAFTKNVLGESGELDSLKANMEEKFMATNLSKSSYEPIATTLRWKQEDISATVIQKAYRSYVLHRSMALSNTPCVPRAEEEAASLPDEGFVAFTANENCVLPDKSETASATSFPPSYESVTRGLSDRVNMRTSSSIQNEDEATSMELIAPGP

| Structure (SMILES) | IC50 |
| --- | --- |
| C[C@H](O)[C@@H](N)c1nc2cc(C(C)(C)C)ccc2[nH]1 [Example 16, (1S,2S)-1-Amino-1-(5-tert-butyl-1H-benzimidazol-2-yl)propan-2-ol] | 2510 nM |
| CO[C@H](C)[C@@H](N)c1nc2cc(C(C)(C)C)ccc2[nH]1 [Example 83, (1S,2R)-1-(5-tert-Butyl-1H-benzimidazol-2-yl)-2-methoxypropan-1-amine] | 872 nM |
| CC(C)c1ccc2[nH]c([C@@H](N)CC(N)=O)nc2c1 [Example 95, (3S)-3-Amino-3-[5-(propan-2-yl)-1H-benzimidazol-2-yl]propanamide] | 3310 nM |
| N#Cc1ccc(-c2ccc3[nH]c([C@@H](N)CC(N)=O)nc3c2)c(Cl)c1 [Example 119, (3S)-3-Amino-3-[5-(2-chloro-4-cyanophenyl)-1H-benzimidazol-2-yl]propanamide] | 671 nM |
| CC(C)(C)[C@H](N)c1nc2cc(-c3ccc(C#N)cc3)ccc2[nH]1 [Example 57, 4-{2-[(1S)-1-amino-2,2-dimethylpropyl]-1H-benzimidazol-5-yl}benzonitrile] | 2530 nM |
| C[C@@H](O)[C@H](N)c1nc2cc(-c3cc(F)c(C#N)c(F)c3)ccc2[nH]1 [Example 89, 4-{2-[(1R,2R)-1-Amino-2-hydroxypropyl]-1H-benzimidazol-5-yl}-2,6-difluorobenzonitrile] | 2390 nM |
| C[C@H](OC(N)=O)[C@H](N)c1nc2cc(C(C)(C)C)ccc2[nH]1 [Example 106, (1R,2S)-1-Amino-1-(5-tert-butyl-1H-benzimidazol-2-yl)propan-2-yl carbamate] | 35 nM |
| CC[C@@H](O)[C@H](N)c1nc2cc(C(C)C)ccc2[nH]1 [Example 126, (1R,2R)-1-Amino-1-[5-(propan-2-yl)-1H-benzimidazol-2-yl]butan-2-ol] | 967 nM |
| C[C@@H](N)c1nc2cc(-c3ccc(C#N)cc3)ccc2[nH]1 [Example 54, 4-{2-[(1R)-1-aminoethyl]-1H-benzimidazol-5-yl}benzonitrile] | 662 nM |
| C[C@H](O)[C@@H](N)c1nc2cc(-c3ccc(C#N)cc3)ccc2[nH]1 [Example 62, 4-{2-[(1S,25)-1-amino-2-hydroxypropyl]-1H-benzimidazol-5-yl}benzonitrile] | 580 nM |
| N#Cc1ccc(-c2ccc3[nH]c([C@H](N)CC(N)=O)nc3c2)cc1 [Example 44, (3R)-3-Amino-3-[5-(4-cyanophenyl)-1H-benzimidazol-2-yl]propanamide] | 890 nM |
| CC(C)(C)c1ccc2[nH]c([C@H]3NCC[C@H]3O)nc2c1 [Example 136, (2R,3R)-2-(5-tert-Butyl-1H-benzimidazol-2-yl)pyrrolidin-3-ol] | 508 nM |
| CO[C@H](C)[C@H](N)c1nc2cc(-c3ccc(C#N)c(F)c3)ccc2[nH]1 [Example 85, 4-{2-[(1R,2R)-1-Amino-2-methoxypropyl]-1H-benzimidazol-5-yl}-2-fluorobenzonitrile] | 10.5 nM |
| N#Cc1ccc(-c2ccc3[nH]c([C@H]4C[C@@H](O)CN4)nc3c2)cc1 [Example 43, 4-{2-[(2R,4R)-4-Hydroxypyrrolidin-2-yl]-1H-benzimidazol-5-yl}benzonitrile] | 842 nM |
| CC(C)[C@H](N)c1nc2cc(-c3ccc(C#N)cc3)ccc2[nH]1 [Example 52, 4-{2-[(1S)-1-amino-2-methylpropyl]-1H-benzimidazol-5-yl}benzonitrile] | 703 nM |
| N#Cc1ccc(-c2ccc3[nH]c([C@@H]4C[C@@H](O)CN4)nc3c2)cc1 (stereo in doubt) [Example 46, 4-{2-[(2S,4R)-4-Hydroxypyrrolidin-2-yl]-1H-benzimidazol-5-yl}benzonitrile] | 713 nM |
| CC(C)(C)c1ccc2[nH]c([C@@H](N)C(C)(C)C(N)=O)nc2c1 [Example 141, (3S)-3-Amino-3-(5-tert-butyl-1H-benzimidazol-2-yl)-2,2-dimethylpropanamide] | 797 nM |
| CC(C)(C)c1ccc2[nH]c([C@@H]3CCN3)nc2c1 [Example 129, 2-[(2S)-Azetidin-2-yl]-5-tert-butyl-1H-benzimidazole] | 510 nM |

Next, values leading:

| IC50 | Structure (SMILES) |
| --- | --- |
| 97.5 nM | CC(C)[C@@H](N)c1nc2cc(-c3ccc(C#N)cc3)ccc2[nH]1 [Example 56, 4-{2-[(1R)-1-amino-2-methylpropyl]-1H-benzimidazol-5-yl}benzonitrile] |
| 56.1 nM | C[C@@H](C(N)=O)[C@H](N)c1nc2cc(-c3ccc(C#N)c(F)c3)ccc2[nH]1 [Example 109, (2R,3S)-3-Amino-3-[5-(4-cyano-3-fluorophenyl)-1H-benzimidazol-2-yl]-2-methylpropanamide] |
| 200 nM | C[C@@H](O)[C@H](N)c1nc2cc(-c3ccc(C#N)cc3F)ccc2[nH]1 [Example 101, 4-{2-[(1R,2R)-1-Amino-2-hydroxypropyl]-1H-benzimidazol-5-yl}-3-fluorobenzonitrile] |
| 105 nM | N#Cc1ccc(-c2ccc3[nH]c(C4(N)CCCC4)nc3c2)cc1 [Example 59, 4-[2-(1-aminocyclopentyl)-1H-benzimidazol-5-yl]benzonitrile] |
| 188 nM | CO[C@H](C)[C@H](N)c1nc2cc(CC(C)(C)C)c(F)cc2[nH]1 [Example 96, (1R,2R)-1-[5-(2,2-Dimethylpropyl)-5-fluoro-1H-benzimidazol-2-yl]-2-methoxypropan-1-amine] |
| 110 nM | CCC[C@H](N)c1nc2cc(-c3ccc(C#N)cc3)ccc2[nH]1 [Example 147, 4-{2-[(1S)-1-Aminobutyl]-1H-benzimidazol-5-yl}benzonitrile] |
| 54.2 nM | CCC(C)(C)c1ccc2[nH]c([C@@H](N)[C@@H](C)O)nc2c1 [Example 39, (1R,2R)-1-Amino-1-[5-(2-methylbutan-2-yl)-1H-benzimidazol-2-yl]propan-2-ol] |
| 108 nM | CC(C)C[C@@H](N)c1nc2cc(C(C)(C)C)ccc2[nH]1 [Example 8, (1R)-1-(5-tert-Butyl-1H-benzimidazol-2-yl)-3-methylbutan-1-amine] |
| 487 nM | C[C@@H](O)[C@@H](N)c1nc2cc(C(C)(C)C)ccc2[nH]1 [Example 18, (1S,2R)-1-Amino-1-(5-tert-butyl-1H-benzimidazol-2-yl)propan-2-ol] |
| 390 nM | CCC(C)(C)c1ccc2[nH]c([C@@H]3C[C@H](O)CN3)nc2c1 [Example 29, (3S,5S)-5-[5-(2-Methylbutan-2-yl)-1H-benzimidazol-2-yl]pyrrolidin-3-ol] |
| 171 nM | CCC(C)(C)c1ccc2[nH]c([C@H](C)N)nc2c1 [Example 35, (1S)-1-[5-(2-Methylbutan-2-yl)-1H-benzimidazol-2-yl]ethanamine] |
| 59.3 nM | C[C@@H](O)[C@H](N)c1nc2cc(C(C)(C)C)ccc2[nH]1 [Example 78, (1R,2R)-1-Amino-1-(5-tert-butyl-1H-benzimidazol-2-yl)propan-2-ol] |
| 176 nM | C[C@H](O)[C@H](N)c1nc2cc(C(C)(C)C)ccc2[nH]1 [Example 19, (1R,2S)-1-Amino-1-(5-tert-butyl-1H-benzimidazol-2-yl)propan-2-ol] |
| 163 nM | N#Cc1ccc(-c2ccc3[nH]c([C@@H](N)C4CCCC4)nc3c2)cc1 [Example 32, 4-{2-[(S)-Amino(cyclopentyl)methyl]-1H-benzimidazol-5-yl}benzonitrile] |
| 227 nM | N#Cc1ccc(-c2ccc3[nH]c([C@H](N)c4ccccc4)nc3c2)cc1 [Example 36, 4-{2-[(R)-Amino(phenyl)methyl]-1H-benzimidazol-5-yl}benzonitrile] |
| 208 nM | CC(C)(C)c1ccc2nc([C@@H](N)CO)cn2c1 [Example 155, (2R)-2-Amino-2-(6-tert-butylimidazo[1,2-a]pyridin-2-yl)ethanol] |
| 148 nM | CCC(C)(C)c1ccc2[nH]c([C@@H](N)CC(N)=O)nc2c1 [Example 30, (3S)-3-Amino-3-[5-(2-methylbutan-2-yl)-1H-benzimidazol-2-yl]propanamide] |

Source: US8927587B2, “Chemical compounds” (Pfizer Limited, priority 2012, dated 2015)
